Experimental data as given in patent US20230284620A1, “MIXTURES OF PYRIDAZINES AS HERBICIDAL COMPOSITIONS” (SYNGENTA CROP PROTECTION AG, priority 2020, published 2023).

Legend:
Assay in all cases: Post-emergence glasshouse herbicide test, visual phytotoxicity
Format in all cases: in vivo
Details in all cases: 13 days
[1] = test system: Abutilon threophrasti (ABUTH)
Description: (§1) Seeds of Setaria faberi (SETFA), Echinochloa crus-galli (ECHCG), Digitaria sanguinalis (DIGSA), Lolium perenne (LOLPE), Alopecurus myosuroides (ALOMY), Chenopodium album (CHEAL), Ipomoea hederacea (IPOHE), Stellaria media (STEME), Abutilon threophrasti (ABUTH) and Amaranthus retroflexus (AMARE) were sown in standard sterilised soil in pots. After cultivation for 8 days under controlled conditions in a glasshouse (at 24/19° C., day/night; 16 hours light; no humidity control), the plants were sprayed at 500 l/Ha with an aqueous spray solution derived from the formulation of the technical active ingredients in a small amount of acetone and a solvent and emulsifier mixture referred to as IF50 (11.12% Emulsogen EL360 TM+44.44% N-methylpyrrolidone+44.44% Dowanol DPM glycol ether), to create a 50 g/l solution which was then diluted using 0.2% Genapol X080 (CAS Number: 9043-30-5) as diluent to give the desired final dose of test compound.
(§2) Where active ingredients were applied as mixtures, aqueous spray solutions were prepared as above, containing both active ingredients.
(§3) The test plants were then grown under controlled conditions in a glasshouse (at 24/18° C., day/night; 15 hours light; 50% humidity) and watered twice daily. After 13 days, the test was evaluated visually for percentage phytotoxicity to the plants (where 100=total damage to plant; 0=no damage to plant; and NC=not captured) when compared to control untreated plants. Two to four replicates were applied for each treatment in a randomised block test design.
(§4) 22., E=X+Y−(X*Y/100), where • X=average percent phytotoxicity of herbicide A when applied at a certain rate • Y=average percent phytotoxicity using herbicide B when applied at a certain rate • E=the expected effect of the mixture of herbicides A and B as calculated from the Colby formula.

Stellaria media (STEME) = test system: Stellaria media (STEME)
Description: as §1, §2, §3, §4

Setaria faberi (SETFA) = test system: Setaria faberi (SETFA)
Description: as §1, §2, §3, §4

[2] = test system: Digitaria sanguinalis (DIGSA)
Description: as §1, §2, §3, §4

[3] = test system: Alopecurus myosuroides (ALOMY)
Description: as §1, §2, §3, §4

[4] = test system: Amaranthus retroflexus (AMARE)
Description: as §1, §2, §3, §4

[5] = test system: Ipomoea hederacea (IPOHE)
Description: as §1, §2, §3, §4

[6] = test system: Chenopodium album (CHEAL)
Description: as §1, §2, §3, §4

[7] = test system: Echinochloa crus-galli (ECHCG)
Description: as §1, §2, §3, §4

Lolium perenne (LOLPE) = test system: Lolium perenne (LOLPE)
Description: as §1, §2, §3, §4

## CCOC(=O)COc1ncccc1Oc1cc(-n2c(=O)cc(C(F)(F)F)n(C)c2=O)c(F)cc1Cl [B-V]
[1]; 0.08 g/ha
  percentage phytotoxicity ABUTH: 23%
[1]; 0.16 g/ha
  percentage phytotoxicity ABUTH: 75%
[1]; 0.32 g/ha
  percentage phytotoxicity ABUTH: 85%
[1]; 0.625 g/ha
  percentage phytotoxicity ABUTH: 100%
[1]; 1.25 g/ha
  percentage phytotoxicity ABUTH: 100%
Stellaria media (STEME); 0.08 g/ha
  percentage phytotoxicity STEME: 15%
Stellaria media (STEME); 0.16 g/ha
  percentage phytotoxicity STEME: 45%
Stellaria media (STEME); 0.32 g/ha
  percentage phytotoxicity STEME: 85%
Stellaria media (STEME); 0.625 g/ha
  percentage phytotoxicity STEME: 95%
Stellaria media (STEME); 1.25 g/ha
  percentage phytotoxicity STEME: 100%
Setaria faberi (SETFA); 0.08 g/ha
  percentage phytotoxicity SETFA: 0%
Setaria faberi (SETFA); 0.16 g/ha
  percentage phytotoxicity SETFA: 0%
Setaria faberi (SETFA); 0.32 g/ha
  percentage phytotoxicity SETFA: 20%
Setaria faberi (SETFA); 0.625 g/ha
  percentage phytotoxicity SETFA: 20%
Setaria faberi (SETFA); 1.25 g/ha
  percentage phytotoxicity SETFA: 33%
[2]; 0.08 g/ha
  percentage phytotoxicity DIGSA: 0%
[2]; 0.16 g/ha
  percentage phytotoxicity DIGSA: 13%
[2]; 0.32 g/ha
  percentage phytotoxicity DIGSA: 40%
[2]; 0.625 g/ha
  percentage phytotoxicity DIGSA: 50%
[2]; 1.25 g/ha
  percentage phytotoxicity DIGSA: 68%
[3]; 0.08 g/ha
  percentage phytotoxicity ALOMY: 0%
[3]; 0.16 g/ha
  percentage phytotoxicity ALOMY: 5%
[3]; 0.32 g/ha
  percentage phytotoxicity ALOMY: 50%
[3]; 0.625 g/ha
  percentage phytotoxicity ALOMY: 55%
[3]; 1.25 g/ha
  percentage phytotoxicity ALOMY: 78%
[4]; 0.08 g/ha
  percentage phytotoxicity AMARE: 35%
[4]; 0.16 g/ha
  percentage phytotoxicity AMARE: 100%
[4]; 0.32 g/ha
  percentage phytotoxicity AMARE: 100%
[4]; 0.625 g/ha
  percentage phytotoxicity AMARE: 100%
[4]; 1.25 g/ha
  percentage phytotoxicity AMARE: 100%
[5]; 0.08 g/ha
  percentage phytotoxicity IPOHE: 23%
[5]; 0.16 g/ha
  percentage phytotoxicity IPOHE: 50%
[5]; 0.32 g/ha
  percentage phytotoxicity IPOHE: 55%
[5]; 0.625 g/ha
  percentage phytotoxicity IPOHE: 93%
[5]; 1.25 g/ha
  percentage phytotoxicity IPOHE: 88%
[6]; 0.08 g/ha
  percentage phytotoxicity CHEAL: 8%
[6]; 0.16 g/ha
  percentage phytotoxicity CHEAL: 63%
[6]; 0.32 g/ha
  percentage phytotoxicity CHEAL: 78%
[6]; 0.625 g/ha
  percentage phytotoxicity CHEAL: 80%
[6]; 1.25 g/ha
  percentage phytotoxicity CHEAL: 95%
[7]; 0.08 g/ha
  percentage phytotoxicity ECHCG: 0%
[7]; 0.16 g/ha
  percentage phytotoxicity ECHCG: 0%
[7]; 0.32 g/ha
  percentage phytotoxicity ECHCG: 10%
[7]; 0.625 g/ha
  percentage phytotoxicity ECHCG: 8%
[7]; 1.25 g/ha
  percentage phytotoxicity ECHCG: 20%
Lolium perenne (LOLPE); 0.08 g/ha
  percentage phytotoxicity LOLPE: 0%
Lolium perenne (LOLPE); 0.16 g/ha
  percentage phytotoxicity LOLPE: 5%
Lolium perenne (LOLPE); 0.32 g/ha
  percentage phytotoxicity LOLPE: 38%
Lolium perenne (LOLPE); 0.625 g/ha
  percentage phytotoxicity LOLPE: 30%
Lolium perenne (LOLPE); 1.25 g/ha
  percentage phytotoxicity LOLPE: 60%
